In PubChem BioAssay (NCI):
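Protocol summary: plate cells (96-well), add compound at 5 concentrations, incubate 48 h, interpolate endpoints linearly. TGI: total growth inhibition.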

What was measured:
Assay in all cases: NCI anticancer screen, dose series, 48 h
DMS 273 small cell lung = test system: DMS 273 small cell lung
HOP-18 NSCLC = test system: HOP-18 NSCLC
HS 578T breast = test system: HS 578T breast
KM12 colon = test system: KM12 colon
M19-MEL melanoma = test system: M19-MEL melanoma
MALME-3M melanoma = test system: MALME-3M melanoma
PC-3 prostate = test system: PC-3 prostate
RXF 393 renal = test system: RXF 393 renal
SF-295 CNS = test system: SF-295 CNS
SN12C renal = test system: SN12C renal
SNB-78 CNS = test system: SNB-78 CNS
TK-10 renal = test system: TK-10 renal

| Compound | TGI (DMS 273 small cell lung) [µM] | TGI (HOP-18 NSCLC) [µM] | TGI (HS 578T breast) [µM] | TGI (KM12 colon) [µM] | TGI (M19-MEL melanoma) [µM] | TGI (MALME-3M melanoma) [µM] | TGI (PC-3 prostate) [µM] | TGI (RXF 393 renal) [µM] | TGI (SF-295 CNS) [µM] | TGI (SN12C renal) [µM] | TGI (SNB-78 CNS) [µM] | TGI (TK-10 renal) [µM] |
| --- | --- | --- | --- | --- | --- | --- | --- | --- | --- | --- | --- | --- |
| O=C(/C=C/c1ccc(O)cc1)c1ccc(O)cc1 | 36.9 | > 100 | > 67.5 | 19.8 | 42.2 | 70 | > 100 | 50.1 | > 96.7 | 79 | > 100 | > 100 |
| CN(C)CC1CC/C(=C\c2ccc(O)cc2)C1=O (centres undefined) | 9.68 | 15.9 | 40.9 | 16.6 | 7.55 | 6.62 | 20.2 | 4.8 | 34.5 | 14 | 17.9 | 9.01 |
| O=c1c(-c2ccccc2)c2oc(c1-c1ccccc1)CSCc1cccc(c1)CSC2 | > 100 | > 100 | – | > 100 | > 100 | > 100 | – | 50.7 | > 100 | > 100 | > 100 | > 100 |
| COc1nc(NC2OC(COC(C)=O)C(OC(C)=O)C(OC(C)=O)C2OC(C)=O)c2c(OC(C)=O)cc(=O)oc2n1 (centres undefined) | > 100 | > 100 | – | > 100 | > 100 | > 100 | – | > 100 | > 100 | > 100 | > 100 | > 100 |
| Cc1ccc(/C=C/C(=O)CCN(C)C)cc1 | 25.6 | 38.4 | – | 14 | 38.7 | 39.7 | – | 41.6 | > 100 | 32.1 | 87 | 30.2 |
| CC(=O)NNc1nc(C)c(C(=O)/C=C/c2ccc(NC(C)=O)cc2)s1 | > 100 | > 100 | – | > 100 | > 100 | > 100 | – | > 100 | > 100 | > 100 | > 100 | > 100 |
| CC(=O)O/N=C(/C)c1ccccc1O | > 100 | > 100 | – | > 100 | > 100 | > 100 | – | > 100 | > 100 | > 100 | > 100 | > 100 |
| S=c1sc2c(n1-c1ccccc1)NC=NC2S (centres undefined) | > 100 | 92.1 | – | > 100 | > 100 | > 100 | – | > 100 | > 100 | > 100 | > 100 | > 100 |
